Measurements reported in patent US20240293558A1, “KRAS INHIBITOR CONJUGATES” (Erasca, Inc., priority 2021, published 2024).
Where two headings read alike, the source gives them in different places.

How the values were obtained:
[1] = target: T1, KRas G12D fused to HiBiT peptide (Homo sapiens, UniProt P01116, G12D); assay: ASPC-1 HiBit assay to determine G12D degradation; format: cell-based; details: AsPC-1 HiBiT cells, 24-hour incubation; read-out: ASPC-1 HiBit DC50 (C)
T1 construct: endogenous in cells; host or cells: AsPC-1 HiBiT knock-in single clone (Cas9 RNP + ssODN)
Method in brief: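 Homozygous AsPC-1 clone with N-terminal HiBiT knock-in on endogenous KRas G12D, 24 h compound exposure, top dose 10 μM, 3-fold, 10 points, 1% DMSO. Lytic HiBiT luminescence normalised to DMSO and inhibitor controls gives % degradation; DC50 from 4-parameter fit after hook-effect points removed.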

[2] = target: KRAS G12D (Homo sapiens, UniProt P01116, G12D); assay: In-vitro RAS-RAF binding assay (RRB), HTRF/FRET; format: biochemical; set-up: Biotinylated KRAS protein amino acids 1-169 (produced at Erasca); made in house; details: read-out: Inhibition of RAS-RAF Binding (in-vitro) KRAS (G12D) IC50
Method in brief: (§1)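 Biotinylated KRAS 1-169 (streptavidin-terbium donor, 30 nM) and GST-cRAF RBD (anti-GST d2 acceptor, 30 nM) in HEPES pH 7.5, NaCl, MgCl2, DTT buffer. After compound incubation, SOS1 catalytic domain plus GTPgS drive 60 min nucleotide exchange. HTRF FRET read at equilibrium, in duplicate.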

[3] = target: T2, KRAS (WT) (Homo sapiens, UniProt P01116); assay: In-vitro RAS-RAF binding assay (RRB), HTRF/FRET; format: biochemical; details: read-out: Inhibition of RAS-RAF Binding (in-vitro) KRAS (WT) IC50
T2 construct: Biotinylated KRAS protein amino acids 1-169 (produced at Erasca); made in house
Method in brief: as §1

[4] = Table 2, average of multiple runs of each compound

T2 sequence (P01116 1-169 isoform P01116-2): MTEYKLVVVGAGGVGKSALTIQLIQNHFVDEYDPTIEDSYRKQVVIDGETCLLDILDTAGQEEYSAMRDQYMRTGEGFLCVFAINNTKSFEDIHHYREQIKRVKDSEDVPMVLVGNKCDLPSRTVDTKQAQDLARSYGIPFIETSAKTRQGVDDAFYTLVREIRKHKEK
T1 sequence (P01116 1-188 isoform P01116-2 G12D): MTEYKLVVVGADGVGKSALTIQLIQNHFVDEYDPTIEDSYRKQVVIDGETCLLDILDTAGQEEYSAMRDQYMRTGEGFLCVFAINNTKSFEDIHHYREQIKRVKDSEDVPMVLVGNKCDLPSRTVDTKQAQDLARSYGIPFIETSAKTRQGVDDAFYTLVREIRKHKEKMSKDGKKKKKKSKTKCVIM
KRAS G12D, sequence (P01116 1-169 isoform P01116-2 G12D): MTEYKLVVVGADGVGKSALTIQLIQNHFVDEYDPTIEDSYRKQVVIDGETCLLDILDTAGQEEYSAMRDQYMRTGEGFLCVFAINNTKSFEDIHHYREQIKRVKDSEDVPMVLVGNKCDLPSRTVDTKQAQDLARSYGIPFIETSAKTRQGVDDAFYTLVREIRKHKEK

Compound | DC50 [1] [nM] | IC50 [2, 4] [nM] | IC50 [3, 4] [nM] | IC50 ([2]; Table 1) [nM] | IC50 ([3]; Table 1) [nM]
CC(C)[C@@H](C(=O)N1C[C@H](O)C[C@H]1C(=O)N[C@@H](C)c1ccc(-c2c(F)cccc2F)cc1)c1cc(OCC2CCN(CCOc3nc(N4CC5CCC(C4)N5)c4cc(Cl)c(-c5ccc(F)c6sc(N)c(C#N)c56)c(F)c4n3)CC2)no1 [Example 17, (2S,4R)-1-((2R)-2-(3-((1-(2-((7-(2-amino-3-cyano-7-fluorobenzo[b]thiophen-4-yl)-4-(3,8-diazabicyclo[3.2.1]octan-3-yl)-6-chloro-8-fluoroquinazolin-2-yl)oxy)ethyl)piperidin-4-yl)methoxy)isoxazol-5-yl)-3-methylbutanoyl)-N—((S)-1-(2′,6′-difluoro-[1,1′-biphenyl]-4-yl)ethyl)-4-hydroxypyrrolidine-2-carboxamide] | 244 | 15.6 | 2830 |  | 
CC(C)[C@@H](C(=O)N1C[C@H](O)C[C@H]1C(=O)N[C@@H](C)c1ccc(-c2c(F)cccc2F)cc1)c1cc(N2CC3(CCN(CCOc4nc(N5CC6CCC(C5)N6)c5cc(C(F)(F)F)c(-c6ccc(F)c7sc(N)c(C#N)c67)c(F)c5n4)CC3)C2)no1 [Example 77, (2S,4R)-1-((2R)-2-(3-(7-(2-((7-(2-amino-3-cyano-7-fluorobenzo[b]thiophen-4-yl)-4-(3,8-diazabicyclo[3.2.1]octan-3-yl)-8-fluoro-6-(trifluoromethyl)quinazolin-2-yl)oxy)ethyl)-2,7-diazaspiro[3.5]nonan-2-yl)isoxazol-5-yl)-3-methylbutanoyl)-N-((S)-1-(2′,6′-difluoro-[1,1′-biphenyl]-4-yl)ethyl)-4-hydroxypyrrolidine-2-carboxamide] | 330 | 17.6 | 1100 |  | 
C#Cc1c(F)ccc2cc(O)cc(-c3ncc4c(N5CC6CCC(C5)N6)nc(OCCN5CCC(COc6cc([C@H](C(=O)N7C[C@H](O)C[C@H]7C(=O)N[C@@H](C)c7ccc(-c8c(F)cccc8F)cc7)C(C)C)on6)CC5)nc4c3F)c12 [Example 15, (2S,4R)-1-((2R)-2-(3-((1-(2-((4-(3,8-diazabicyclo[3.2.1]octan-3-yl)-7-(8-ethynyl-7-fluoro-3-hydroxynaphthalen-1-yl)-8-fluoropyrido[4,3-d]pyrimidin-2-yl)oxy)ethyl)piperidin-4-yl)methoxy)isoxazol-5-yl)-3-methylbutanoyl)-N—((S)-1-(2′,6′-difluoro-[1,1′-biphenyl]-4-yl)ethyl)-4-hydroxypyrrolidine-2-carboxamide] | 112 | 12.7 | 1320 |  | 
C#Cc1c(F)ccc2cc(O)cc(-c3ncc4c(N5CC6CCC(C5)N6)nc(OCCN5CCC6(CC5)CN(c5cc([C@H](C(=O)N7C[C@H](O)C[C@H]7C(=O)N[C@@H](C)c7ccc(-c8cccc(F)c8F)cc7)C(C)C)on5)C6)nc4c3F)c12 [Example 98, (2S,4R)-1-((2R)-2-(3-(7-(2-((4-(3,8-diazabicyclo[3.2.1]octan-3-yl)-7-(8-ethynyl-7-fluoro-3-hydroxynaphthalen-1-yl)-8-fluoropyrido[4,3-d]pyrimidin-2-yl)oxy)ethyl)-2,7-diazaspiro[3.5]nonan-2-yl)isoxazol-5-yl)-3-methylbutanoyl)-N—((S)-1-(2′,3′-difluoro-[1,1′-biphenyl]-4-yl)ethyl)-4-hydroxypyrrolidine-2-carboxamide] | 107 | 16 | 1430 |  | 

Next, values leading:

DC50 [1] [nM] | IC50 [2, 4] [nM] | IC50 [3, 4] [nM] | IC50 ([2]; Table 1) [nM] | IC50 ([3]; Table 1) [nM] | Compound
525 | 35.2 | > 10000 |  |  | CC(C)[C@@H](C(=O)N1C[C@H](O)C[C@H]1C(=O)N[C@@H](C)c1ccc(-c2c(F)cc(F)cc2F)cc1)c1cc(OCC2(F)CCN(CCOc3nc(N4CC5CCC(C4)N5)c4cc(Cl)c(-c5ccc(F)c6sc(N)c(C#N)c56)c(F)c4n3)CC2)no1 [Example 69, (2S,4R)-1-((2R)-2-(3-((1-(2-((7-(2-amino-3-cyano-7-fluorobenzo[b]thiophen-4-yl)-4-(3,8-diazabicyclo[3.2.1]octan-3-yl)-6-chloro-8-fluoroquinazolin-2-yl)oxy)ethyl)-4-fluoropiperidin-4-yl)methoxy)isoxazol-5-yl)-3-methylbutanoyl)-4-hydroxy-N-((S)-1-(2′,4′,6′-trifluoro-[1,1′-biphenyl]-4-yl)ethyl)pyrrolidine-2-carboxamide]
528 | 29.4 | 6730 |  |  | CC(C)[C@@H](C(=O)N1C[C@H](O)C[C@H]1C(=O)N[C@@H](C)c1ccc(-c2c(F)cc(F)cc2F)cc1)c1cc(OCC2(C)CCN(CCOc3nc(N4CC5CCC(C4)N5)c4cc(Cl)c(-c5ccc(F)c6sc(N)c(C#N)c56)c(F)c4n3)CC2)no1 [Example 72, (2S,4R)-1-((2R)-2-(3-((1-(2-((7-(2-amino-3-cyano-7-fluorobenzo[b]thiophen-4-yl)-4-(3,8-diazabicyclo[3.2.1]octan-3-yl)-6-chloro-8-fluoroquinazolin-2-yl)oxy)ethyl)-4-methylpiperidin-4-yl)methoxy)isoxazol-5-yl)-3-methylbutanoyl)-4-hydroxy-N-((S)-1-(2′,4′,6′-trifluoro-[1,1′-biphenyl]-4-yl)ethyl)pyrrolidine-2-carboxamide]
467 | 12.1 | 196 |  |  | C#Cc1c(F)ccc2cc(O)cc(-c3ncc4c(N5CC6CCC(C5)N6)nc(OCCN5CCC(COc6cc(C(C(=O)N7C[C@H](O)C[C@H]7C(=O)N[C@@H](C)c7ccc(-c8scnc8C)cc7)C(C)C)on6)CC5)nc4c3F)c12 (stereo in doubt) [Example 35, (2S,4R)-1-((2R)-2-(3-((1-(2-((4-(3,8-diazabicyclo[3.2.1]octan-3-yl)-7-(8-ethynyl-7-fluoro-3-hydroxynaphthalen-1-yl)-8-fluoropyrido[4,3-d]pyrimidin-2-yl)oxy)ethyl)piperidin-4-yl)methoxy)isoxazol-5-yl)-3-methylbutanoyl)-4-hydroxy-N—((S)-1-(4-(4-methylthiazol-5-yl)phenyl)ethyl)pyrrolidine-2-carboxamide]
582 | 28 | > 10000 |  |  | CC(C)[C@@H](C(=O)N1C[C@H](O)C[C@H]1C(=O)N[C@@H](C)c1ccc(-c2c(F)cc(F)cc2F)cc1)c1cc(OCC2CCN(CCOc3nc(N4CC5CCC(C4)N5)c4cc(Cl)c(-c5ccc(F)c6sc(N)c(C#N)c56)c(F)c4n3)CC2)no1 [Example 71, (2S,4R)-1-((2R)-2-(3-((1-(2-((7-(2-amino-3-cyano-7-fluorobenzo[b]thiophen-4-yl)-4-(3,8-diazabicyclo[3.2.1]octan-3-yl)-6-chloro-8-fluoroquinazolin-2-yl)oxy)ethyl)piperidin-4-yl)methoxy)isoxazol-5-yl)-3-methylbutanoyl)-4-hydroxy-N-((S)-1-(2′,4′,6′-trifluoro-[1,1′-biphenyl]-4-yl)ethyl)pyrrolidine-2-carboxamide]
331 | 9.4 | 41.9 | 9.4 | 41.9 | C#Cc1c(F)ccc2cc(O)cc(-c3ncc4c(N5CC6CCC(C5)N6)nc(OC[C@@H]5CCCN5CCCOCCC(=O)N[C@H](C(=O)N5C[C@H](O)C[C@H]5C(=O)N[C@@H](C)c5ccc(-c6c(F)cccc6F)cc5)C(C)(C)C)nc4c3F)c12 [Example 14, (2S,4R)-1-[(2S)-2-[3-[3-[(2S)-2-[[4-(3,8-diazabicyclo[3.2.1]octan-3-yl)-7-(8-ethynyl-7-fluoro-3-hydroxy-1-naphthyl)-8-fluoro-pyrido[4,3-d]pyrimidin-2-yl]oxymethyl]pyrrolidin-1-yl]propoxy]propanoylamino]-3,3-dimethyl-butanoyl]-N-[(1S)-1-[4-(2,6-difluorophenyl)phenyl]ethyl]-4-hydroxy-pyrrolidine-2-carboxamide]
349 | 47.6 | > 10000 |  |  | CC(C)[C@@H](C(=O)N1C[C@H](O)C[C@H]1C(=O)N[C@@H](C)c1ccc(-c2c(F)cccc2F)cc1)c1cc(OCC2(F)CCN(CCOc3nc(N4CC5CCC(C4)N5)c4cc(Cl)c(-c5ccc(F)c6sc(N)c(C#N)c56)c(F)c4n3)CC2)no1 [Example 73, (2S,4R)-1-((2R)-2-(3-((1-(2-((7-(2-amino-3-cyano-7-fluorobenzo[b]thiophen-4-yl)-4-(3,8-diazabicyclo[3.2.1]octan-3-yl)-6-chloro-8-fluoroquinazolin-2-yl)oxy)ethyl)-4-fluoropiperidin-4-yl)methoxy)isoxazol-5-yl)-3-methylbutanoyl)-N-((S)-1-(2′,6′-difluoro-[1,1′-biphenyl]-4-yl)ethyl)-4-hydroxypyrrolidine-2-carboxamide]
